These results are taken from patent EP0837085A1, “POLYCARBONATE-BASE POLYMER, PRODUCTION PROCESS, RESIN COATING FLUID PREPARED THEREFROM, AND ELECTROPHOTOGRAPHIC PHOTORECEPTOR PREPARED THEREFROM” (IDEMITSU KOSAN COMPANY LIMITED, priority 1994, dated 1996).

A short description of data set [1]: pKa of the starting alcohol, in water at 25°C.
Procedure: (§1) An ordinary acid, which is represented by HA, in water is in an equilibrium state as shown below. HA + H2 O ⇄ H3 O^+ (+ A)^- [formula] Equilibrium constant Keq is calculated as follows. Keq =([H3 O^+ (] [A)^- ])/([HA] [H2 O]) [formula] wherein [ ] represents the concentration of each chemical species.
(§2) In ordinary diluted solutions, the concentration of water [H2O] hardly changes and is constantly 55.5M, and the equilibrium constant Keq can be converted into another equation, to show the following acidity constant Ka. Ka =(([A)^- ] [H3 O^+ ])/([HA]) [formula]

Procedure for physchem: as §1, §2

What is called pKa is the negative logarithm of the acid dissociation constant. With `OC(C(F)(F)F)C(F)(F)F`, the pKa in data set [1] was 5.

In “physchem” (water), `OCC(F)(F)F` [2,2,2-trifluoroethanol] returned a pKa of 11.

As to `OCC(F)(F)C(F)(F)C(F)(F)C(F)(F)CO` [1H,1H,6H,6H-perfluoro-1,6-hexanediol], the pKa in data set [1] turned out to be 11.

`OCC(F)(F)C(F)(F)C(F)(F)CO` [2,2,3,3,4,4-hexafluoro-1,5-pentanediol] had a pKa in “physchem” of 11.

`OCCCCCO` [1,5-pentanediol, reference compound] displayed a pKa in the data set “physchem” (water) of 17.
